In ChEMBL document CHEMBL1201862, “PubChem BioAssay data set” (2004):
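Compound exposure: 48 hours, 5 concentrations, 96-well plates. At the GI50, growth is halved.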 Calls of active or inactive are those of the source. Cut-off read from the data, not from the text of the source: active = GI50 up to about 1.1 µM and inactive = higher.

Columns and labels:
Assay in all cases: growth of human tumour cells (NCI), 48 h
SF-539 = test system: SF-539
U-251 = test system: U-251
NCI-H226 = test system: NCI-H226
UACC-62 = test system: UACC-62
DMS-114 = test system: DMS-114
OVCAR-5 = test system: OVCAR-5
SR = test system: SR
SF-268 = test system: SF-268
SK-MEL-2 = test system: SK-MEL-2
K562 = test system: K562
A549 = test system: A549
M19-MEL = test system: M19-MEL
ACHN = test system: ACHN
HT-29 = test system: HT-29
HCT-15 = test system: HCT-15
HL-60 = test system: HL-60
SK-OV-3 = test system: SK-OV-3
UO-31 = test system: UO-31
RXF 393 = test system: RXF 393
SNB-78 = test system: SNB-78
SW-620 = test system: SW-620
A498 = test system: A498
DMS-273 = test system: DMS-273
KM-20L2 = test system: KM-20L2
786-0 = test system: 786-0
HCT-116 = test system: HCT-116
UACC-257 = test system: UACC-257
SNB-75 = test system: SNB-75
NCI-H23 = test system: NCI-H23
HOP-62 = test system: HOP-62
RPMI-8226 = test system: RPMI-8226
DLD-1 = test system: DLD-1
HOP-92 = test system: HOP-92
LOX IMVI = test system: LOX IMVI
OVCAR-8 = test system: OVCAR-8
SK-MEL-28 = test system: SK-MEL-28
SF-295 = test system: SF-295
SNB-19 = test system: SNB-19
Malme-3M = test system: Malme-3M
TK-10 = test system: TK-10
XF498 = test system: XF498
COLO 205 = test system: COLO 205
OVCAR-3 = test system: OVCAR-3
HOP-18 = test system: HOP-18
EKVX = test system: EKVX
MOLT-4 = test system: MOLT-4
KM12 = test system: KM12
IGROV-1 = test system: IGROV-1
CCRF-CEM = test system: CCRF-CEM
HCC 2998 = test system: HCC 2998
NCI-H522 = test system: NCI-H522
SK-MEL-5 = test system: SK-MEL-5
SN12C = test system: SN12C
M14 = test system: M14
BT-549 = test system: BT-549
MCF7 = test system: MCF7
OVCAR-4 = test system: OVCAR-4
NCI-H460 = test system: NCI-H460
NCI/ADR-RES = test system: NCI/ADR-RES
MDA-MB-231 = test system: MDA-MB-231
DU-145 = test system: DU-145
CAKI-1 = test system: CAKI-1
MDA-N = test system: MDA-N
MDA-MB-435 = test system: MDA-MB-435
PC-3 = test system: PC-3
T47D = test system: T47D
Hs-578T = test system: Hs-578T

Measured: GI50

COc1ccc2c(c1)C(=O)c1ccc(OC)cc1C2=S
> 100 µM: HCT-15
inactive: SF-539 > 100 µM | U-251 24.4 µM | NCI-H226 > 100 µM | UACC-62 49.1 µM | DMS-114 > 100 µM | OVCAR-5 > 100 µM | SR > 100 µM | SF-268 81.5 µM | SK-MEL-2 > 100 µM | K562 > 100 µM | A549 > 100 µM | M19-MEL > 100 µM | ACHN > 100 µM | HT-29 > 100 µM | HL-60 40.1 µM | SK-OV-3 > 100 µM | UO-31 > 100 µM | RXF 393 > 100 µM | SNB-78 30.7 µM | SW-620 > 100 µM | A498 > 100 µM | DMS-273 > 100 µM | KM-20L2 > 100 µM | 786-0 > 100 µM | HCT-116 > 100 µM | UACC-257 > 100 µM | SNB-75 30.3 µM | NCI-H23 > 100 µM | HOP-62 > 100 µM | RPMI-8226 > 100 µM | DLD-1 55.5 µM | HOP-92 > 100 µM | LOX IMVI > 100 µM | OVCAR-8 > 100 µM | SK-MEL-28 > 100 µM | SF-295 > 100 µM | SNB-19 > 100 µM | Malme-3M > 100 µM | TK-10 > 100 µM | XF498 85.3 µM | COLO 205 > 100 µM | OVCAR-3 > 100 µM | HOP-18 > 100 µM | EKVX > 100 µM | MOLT-4 > 100 µM | KM12 > 100 µM | IGROV-1 > 100 µM | CCRF-CEM 25.5 µM | HCC 2998 > 100 µM | NCI-H522 > 100 µM | SK-MEL-5 > 100 µM | SN12C > 100 µM | M14 > 100 µM

O=C1N[C@@H]([C@H]2CC[C@H](Cl)CN2)C(=O)N[C@H]1[C@H]1CC[C@H](Cl)CN1
active: SF-539 0.357 µM | U-251 0.406 µM | NCI-H226 1.04 µM | UACC-62 0.137 µM | DMS-114 0.269 µM | MCF7 0.195 µM | SR 0.1 µM | SF-268 0.466 µM | A549 0.248 µM | NCI-H460 0.116 µM | ACHN 0.1 µM | NCI/ADR-RES 0.902 µM | HL-60 0.1 µM | SK-OV-3 0.836 µM | UO-31 1.04 µM | SW-620 0.962 µM | DMS-273 0.205 µM | 786-0 0.1 µM | HCT-116 0.743 µM | SNB-75 0.507 µM | MDA-MB-231 0.925 µM | NCI-H23 0.292 µM | DU-145 0.108 µM | HOP-62 0.28 µM | CAKI-1 0.261 µM | MDA-N 0.555 µM | HOP-92 0.757 µM | LOX IMVI 0.237 µM | OVCAR-8 0.853 µM | MDA-MB-435 1.06 µM | SF-295 0.169 µM | Malme-3M 0.836 µM | PC-3 0.804 µM | XF498 0.184 µM | MOLT-4 0.103 µM | T47D 0.297 µM | CCRF-CEM 0.152 µM | HCC 2998 0.923 µM | NCI-H522 0.706 µM | SN12C 0.243 µM | M14 0.158 µM
inactive: BT-549 1.63 µM | OVCAR-5 1.25 µM | OVCAR-4 2.77 µM | SK-MEL-2 2.56 µM | K562 1.39 µM | M19-MEL 2.47 µM | HT-29 1.83 µM | RXF 393 2.04 µM | SNB-78 2.94 µM | A498 2.63 µM | KM-20L2 4.93 µM | UACC-257 2.26 µM | RPMI-8226 1.32 µM | DLD-1 4.92 µM | SK-MEL-28 4.32 µM | SNB-19 1.37 µM | TK-10 4.42 µM | COLO 205 1.99 µM | OVCAR-3 1.8 µM | HOP-18 5.86 µM | EKVX 3.32 µM | KM12 3.3 µM | IGROV-1 4.34 µM | Hs-578T 5.06 µM | SK-MEL-5 1.21 µM
1.14 µM: HCT-15
